Results published in patent US20240301319A1, “PERFUMING COMPOSITIONS” (FIRMNICH SA, priority 2017, published 2024).
Where a name gives a salt, the structure may show the parent alone. Read-outs that look alike come from different tables or passages of the source. Blank lines part the entries; values can stand above or below the compound they belong to.

Experiments:
[1] = Volatility of perfuming compounds (Tables 4 to 10), with top/middle/bottom note type; type: physicochemical
Summary of the method: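 Note type follows from air volatility (μg/l): bottom 49–0.1, middle 99–50, top 70,000–100. Compounds are listed within watery, green, fruity, citrus, sweet, gourmand and woody families.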

[2] = Odor threshold and odor value of perfuming compounds (Tables 4 to 10)
[3] = Table 6, perfuming compounds having a fruity note
[4] = Table 6, perfuming compounds having a fruity note, note type by volatility
[5] = Table 7, citrus note, top, middle or bottom note
[6] = note type (Top/Middle/Bottom) by volatility, perfuming compounds having a green note
[7] = perfuming compounds having a green note
[8] = Table 7, citrus note, equals volatility divided by odor threshold
[9] = Table 8, perfuming compounds having a sweet note
[10] = Table 8, perfuming compounds having a sweet note, note type by volatility
[11] = Table 9, perfuming compounds having a gourmand note, note type by volatility
[12] = Table 4, watery note, top, middle or bottom note
[13] = Table 4, watery note, equals volatility divided by odor threshold
[14] = Table 10, perfuming compounds having a woody note, note type by volatility

Compound: CCC/C=C/C=O [(2E)-2-HEXENAL]
Volatility [1, 3]: 33708.26 μg/l air
Type [1, 4]: TOP (perfuming compounds having a volatility ranging from 70,000 to 100 μg/l in air are referred to as “top notes”)
Volatility (μg/l air) ([1]; Table 7, citrus note): 33708.26 μg/l air
Type [1, 5]: Top
Type [1, 6]: Top
Volatility (μg/l air) [1, 7]: 33708.26 μg/l air
Odor Threshold (μg/l air) ([2]; Table 7, citrus note): 2.53E−03 μg/l air
Odor Value [2, 8]: 1.33E+07
Odor Threshold (μg/l air) [2, 7]: 2.53E−03 μg/l air

Compound: ALLYL (3-METHYLBUTOXY)ACETATE (A) + (+−)-ALLYL (2-METHYLBUTOXY)ACETATE (B)
Volatility (μg/l air) ([1]; Table 7, citrus note): 261.90 μg/l air
Type [1, 5]: Top
Odor Threshold (μg/l air) ([2]; Table 7, citrus note): 9.89E−05 μg/l air
Odor Value [2, 8]: 2.65E+06

Compound: C=CCCCCCCCCC=O [10-undecenal]
Volatility (μg/l air) ([1]; Table 4, watery note): 136.73 μg/l air
Type [1, 12]: TOP (perfuming compounds having a volatility ranging from 70,000 to 100 μg/l in air are referred to as “top notes”)
Odor Threshold (μg/l air) ([2]; Table 4, watery note): 3.15E−03 μg/l air
Odor Value [2, 13]: 4.34E+04

Compound: C=CC(C)CC(=O)CC(C)C (racemic)
Volatility [1, 3]: 4203.89 μg/l air
Type [1, 4]: TOP (perfuming compounds having a volatility ranging from 70,000 to 100 μg/l in air are referred to as “top notes”)
Volatility (μg/l air) ([1]; Table 7, citrus note): 4203.89 μg/l air
Type [1, 5]: Top
Odor Threshold (μg/l air) ([2]; Table 7, citrus note): 2.78E−01 μg/l air
Odor Value [2, 8]: 1.51E+04

Compound: CCCCOC(C)=O [BUTYL ACETATE]
Volatility [1]: 117207.52 μg/l air
Type [1, 4]: TOP (perfuming compounds having a volatility ranging from 70,000 to 100 μg/l in air are referred to as “top notes”)
Type [1, 10]: Top
Type [1, 11]: Top
Odor Threshold [2, 9]: 4.18E−01 μg/l air
Odor Value [2, 9]: 2.80E+05
Odor Threshold ([2]; Table 9, gourmand note): 4.18E−01 μg/l air

Compound: C=CC1(C)CCCC(C)(C)O1 (racemic)
Type [1, 6]: Top
Volatility (μg/l air) [1, 7]: 23116.66 μg/l air
Odor Threshold (μg/l air) [2, 7]: 1.64E−01 μg/l air

Compound: CC1(C)CC=C(CCC=O)CC1
Type [1, 6]: Top
Volatility (μg/l air) [1, 7]: 417.92 μg/l air
Odor Threshold (μg/l air) [2, 7]: 2.06E−03 μg/l air

Compound: C=C/C=C/C=C\CCCCC
Type [1, 6]: Top
Volatility (μg/l air) [1, 7]: 1247.28 μg/l air
Odor Threshold (μg/l air) [2, 7]: 3.76E−05 μg/l air

Compound: CCCC(O)CCC1C(C)CCC(C)C1(C)C (racemic)
Type [1, 14]: Bottom
Volatility ([1]; Table 10, woody note): 3.42 μg/l air
Odor Threshold ([2]; Table 10, woody note): 4.05E−04 μg/l air

Compound: 8(9)-METHOXY-TRICYCLO[5.2.1.0(2,6)]DECANE-3(4)-CARBALDEHYDE
Volatility (μg/l air) ([1]; Table 4, watery note): 5.87 μg/l air
Type [1, 12]: bottom (perfuming compounds having a volatility ranging from 49 to 0.1 μg/l in air are referred to as “bottom notes”)
Volatility [1, 3]: 5.87 μg/l air
Type [1, 4]: Bottom
Volatility (μg/l air) ([1]; Table 7, citrus note): 5.87 μg/l air
Type [1, 5]: Bottom
Odor Threshold (μg/l air) ([2]; Table 4, watery note): 4.02E−05 μg/l air
Odor Value [2, 13]: 1.46E+05
Odor Threshold [2, 3]: 4.02E−05 μg/l air
Odor Value [2, 3]: 1.46E+05
Odor Threshold (μg/l air) ([2]; Table 7, citrus note): 4.02E−05 μg/l air
Odor Value [2, 8]: 1.46E+05

Compound: CC(=O)OCCC1CCCCC1 [2-CYCLOHEXYL ETHYL ACETATE]
Volatility [1, 3]: 489.45 μg/l air
Type [1, 4]: TOP (perfuming compounds having a volatility ranging from 70,000 to 100 μg/l in air are referred to as “top notes”)
Volatility [1, 9]: 489.45 μg/l air
Type [1, 10]: Top
Odor Threshold [2, 9]: 4.49E−02 μg/l air
Odor Value [2, 9]: 1.09E+04

Compound: C[C@H]1[C@@H]2C[C@H](C[C@@]13C=CC(=O)CC3)C2(C)C
Volatility [1, 3]: 4.14 μg/l air
Type [1, 4]: Bottom
Type [1, 14]: Bottom
Volatility ([1]; Table 10, woody note): 4.14 μg/l air
Odor Threshold [2, 3]: 6.32E−04 μg/l air
Odor Value [2, 3]: 6.54E+03
Odor Threshold ([2]; Table 10, woody note): 6.32E−04 μg/l air

Compound: 3-(3,3-dimethyl-2,3-dihydro-1H-inden-5-yl)propanal (A) + 3-(1,1-dimethyl-2,3-dihydro-1H-inden-5-yl)propanal (B)
Volatility (μg/l air) ([1]; Table 4, watery note): 13.73 μg/l air
Type [1, 12]: bottom (perfuming compounds having a volatility ranging from 49 to 0.1 μg/l in air are referred to as “bottom notes”)
Odor Threshold (μg/l air) ([2]; Table 4, watery note): 1.32E−05 μg/l air
Odor Value [2, 13]: 1.04E+06

Compound: C/C=C/C(=O)C1=C(C)CCCC1(C)C
Volatility [1, 3]: 81.66 μg/l air
Type [1, 4]: Middle
Type [1, 14]: Middle
Volatility ([1]; Table 10, woody note): 81.66 μg/l air
Odor Threshold [2, 3]: 2.18E−04 μg/l air
Odor Value [2, 3]: 3.75E+05
Odor Threshold ([2]; Table 10, woody note): 2.18E−04 μg/l air

Compound: CC(C)(C)C1CCC(=O)CC1 [4-(2-methyl-2-propanyl)cyclohexanone]
Type [1, 14]: Top
Volatility ([1]; Table 10, woody note): 755.28 μg/l air
Odor Threshold ([2]; Table 10, woody note): 1.15E−01 μg/l air

Compound: CCOc1ccc2ccccc2c1 [2-ETHOXYNAPHTHALENE]
Volatility (μg/l air) ([1]; Table 7, citrus note): 22.67 μg/l air
Type [1, 5]: Bottom
Odor Threshold (μg/l air) ([2]; Table 7, citrus note): 3.57E−03 μg/l air
Odor Value [2, 8]: 6.35E+03

Compound: COc1ccc(C(C)=O)cc1 [1-(4-METHOXYPHENYL)-1-ETHANONE″]
Type [1, 6]: Middle
Volatility (μg/l air) [1, 7]: 50.21 μg/l air
Odor Threshold (μg/l air) [2, 7]: 1.41E−04 μg/l air

Compound: CC1CC(C)(c2ccccc2)OC(C)O1 (stereo not shown)
Volatility [1, 3]: 113.83 μg/l air
Type [1, 4]: TOP (perfuming compounds having a volatility ranging from 70,000 to 100 μg/l in air are referred to as “top notes”)
Odor Threshold [2, 3]: 7.82E−03 μg/l air
Odor Value [2, 3]: 1.46E+04

Compound: CC1=C[C@H]2C[C@H](C(C)C)[C@@H]1[C@@H](C1OCCO1)C2 (racemic)
Type [1, 6]: Bottom
Volatility (μg/l air) [1, 7]: 11.75 μg/l air
Odor Threshold (μg/l air) [2, 7]: 1.51E−01 μg/l air

Now from value to compound, other results behind:

Volatility [1, 3]: 479.20 μg/l air
Volatility [1, 9]: 479.20 μg/l air
Type [1, 10]: Top
Volatility ([1]; Table 9, gourmand note): 479.20 μg/l air
Type [1, 11]: Top
Type [1, 6]: Top
Volatility (μg/l air) [1, 7]: 479.20 μg/l air
Compound: CCOC(=O)CC1(C)OCCO1 [ETHYL 2-METHYL-1,3-DIOXOLANE-2-ACETATE]
Type [1, 4]: TOP (perfuming compounds having a volatility ranging from 70,000 to 100 μg/l in air are referred to as “top notes”)
Odor Threshold [2, 9]: 1.62E−03 μg/l air
Odor Value [2, 9]: 2.95E+05
Odor Threshold ([2]; Table 9, gourmand note): 1.62E−03 μg/l air
Odor Threshold (μg/l air) [2, 7]: 1.62E−03 μg/l air

Type [1, 6]: Top
Volatility (μg/l air) [1, 7]: 2534.77 μg/l air
Compound: CCCC(S)CCOC (racemic) [(+−)-1-METHOXY-3-HEXANETHIOL]
Odor Threshold (μg/l air) [2, 7]: 1.92E−07 μg/l air

Volatility [1, 3]: 8.14 μg/l air
Type [1, 4]: Bottom
Compound: CCC(=O)OC/C=C/c1ccccc1 [(E)-3-PHENYL-2-PROPENYL PROPANOATE]
Odor Threshold [2, 3]: 1.28E−04 μg/l air
Odor Value [2, 3]: 6.35E+04

Volatility [1, 3]: 1.44 μg/l air
Type [1, 4]: Bottom
Compound: CCCCCCCCC1CCC(=O)O1 (racemic) [(+−)-5-octyldihydro-2(3H)-furanone]
Odor Threshold [2, 3]: 2.85E−05 μg/l air
Odor Value [2, 3]: 5.05E+04

Volatility [1, 3]: 0.85 μg/l air
Type [1, 4]: Bottom
Volatility (μg/l air) ([1]; Table 7, citrus note): 0.85 μg/l air
Type [1, 5]: Bottom
Compound: O=C(OCc1ccccc1)c1ccccc1 [BENZYL BENZOATE]
Odor Threshold [2, 3]: 3.67E−02 μg/l air
Odor Value [2, 3]: 2.31E+01
Odor Threshold (μg/l air) ([2]; Table 7, citrus note): 3.67E−02 μg/l air
Odor Value [2, 8]: 2.31E+01

Volatility [1, 3]: 20.47 μg/l air
Type [1, 4]: Bottom
Compound: CC(=O)OC/C=C/c1ccccc1 [(E)-3-PHENYL-2-PROPENYL ACETATE]
Odor Threshold [2, 3]: 1.87E−04 μg/l air
Odor Value [2, 3]: 1.10E+05

Volatility (μg/l air) ([1]; Table 7, citrus note): 995.16 μg/l air
Type [1, 5]: Top
Compound: CCCOC(=O)[C@H](C)OC(C)(C)CC [(−)-PROPYL (S)-2-(1,1-DIMETHYLPROPOXY)PROPANOATE]
Odor Threshold (μg/l air) ([2]; Table 7, citrus note): 4.98E−01 μg/l air
Odor Value [2, 8]: 2.00E+03

Volatility (μg/l air) ([1]; Table 7, citrus note): 990.87 μg/l air
Type [1, 5]: Top
Compound: (3Z)-1,3-undecadien-5-yne (A) + (3E)-1,3-undecadien-5-yne (B)
Odor Threshold (μg/l air) ([2]; Table 7, citrus note): 3.32E−03 μg/l air
Odor Value [2, 8]: 2.98E+05

Volatility [1, 3]: 387.96 μg/l air
Volatility (μg/l air) ([1]; Table 7, citrus note): 387.96 μg/l air
Type [1, 5]: Top
Compound: CC(=O)OC(C)c1ccccc1 (racemic) [(+−)-1-PHENYLETHYL ACETATE]
Type [1, 4]: TOP (perfuming compounds having a volatility ranging from 70,000 to 100 μg/l in air are referred to as “top notes”)
Odor Threshold (μg/l air) ([2]; Table 7, citrus note): 4.43E−02 μg/l air
Odor Value [2, 8]: 8.75E+03

Volatility [1, 3]: 20.55 μg/l air
Type [1, 4]: Bottom
Compound: CCOC(=O)/C=C/c1ccccc1 [ETHYL (E)-3-PHENYL-2-PROPENOATE]
Odor Threshold [2, 3]: 2.38E−05 μg/l air
Odor Value [2, 3]: 8.62E+05

Volatility (μg/l air) ([1]; Table 4, watery note): 91.76 μg/l air
Type [1, 6]: Middle
Volatility (μg/l air) [1, 7]: 91.76 μg/l air
Compound: CCCCCCC#CC(=O)OC [METHYL 2-NONYNOATE]
Type [1, 12]: middle (perfuming compounds having a volatility ranging from 99 to 50 μg/l in air are referred to as “middle notes”)
Odor Threshold (μg/l air) ([2]; Table 4, watery note): 1.60E−03 μg/l air
Odor Value [2, 13]: 5.74E+04
Odor Threshold (μg/l air) [2, 7]: 1.60E−03 μg/l air

Volatility [1, 3]: 262.84 μg/l air
Type [1, 6]: Top
Volatility (μg/l air) [1, 7]: 262.84 μg/l air
Compound: CC(C)=CCCC(C)CCOC=O (racemic) [(+−)-3,7-DIMETHYL-6-OCTENYL FORMATE]
Type [1, 4]: TOP (perfuming compounds having a volatility ranging from 70,000 to 100 μg/l in air are referred to as “top notes”)
Odor Threshold (μg/l air) [2, 7]: 1.72E−03 μg/l air
